Some test systems named below: PC-3; HT-29; OVCAR-3; K562; HCT-116; NCI-H226; SF-268; SK-MEL-5; SK-OV-3; SK-MEL-2; OVCAR-4; 786-0; HOP-92; RXF 393; LOX IMVI; A549; Malme-3M; UO-31; OVCAR-5; NCI-H23.
What all share (experiment): inhibition of tumour cell growth, NCI panel, 48 h

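In this assay, cells in 96-well plates receive the compound at five concentrations for 48 hours. Endpoints are linearly interpolated between the surrounding concentrations. Abbreviation: GI50, concentration required for 50% inhibition of growth.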 The source made the active and inactive calls. No stated cut-off is given here; in the data, active = GI50 up to about 1.1 µM and inactive = higher. Starred links: 1 amine or outer side, 2 acyl side, 3 side chain; linkers in the order of their positions; H or OH if unused. Non-standard residues stand in square brackets, D forms with d. Residues, ends and D or L forms follow the SMILES beside them. *: point of attachment. X47 = CCC(=O)CC1CC(C)CC(C(=O)[*:2])N1[*:1]; X46 = CCCCCCCCC(C)C(=O)*; Aib = CC(C)(N)C(=O)O; X48 = CC(CN(C)CCO)N*

`CCCCCCCCCCCCOCCCOP(=O)([O-])OCC[N+](C)(C)C`: the GI50 is 2.18 µM (inactive) in the test with PC-3; 17.3 µM (inactive) with HT-29; 51.9 µM (inactive) in the test on OVCAR-3; 48.8 µM (inactive) in the test with K562; 26.4 µM (inactive) in the test on HCT-116; 24.3 µM (inactive) with NCI-H226. In addition, the GI50 was 30.3 µM (inactive) with SF-268; 48.6 µM (inactive) with SK-MEL-5; 50.8 µM (inactive) with SK-OV-3; 43.5 µM (inactive) in the test with SK-MEL-2; 22.1 µM (inactive) in the test with OVCAR-4; 10.8 µM (inactive) in the test with 786-0. For the same molecule, the GI50 with HOP-92 was 19.4 µM (inactive); with RXF 393, 9.75 µM (inactive); in the test on LOX IMVI it was 32.2 µM (inactive); with A549, 64 µM (inactive); in the test with Malme-3M, 64.7 µM (inactive); in the test on UO-31 it was 49.4 µM (inactive). The GI50 with OVCAR-5 was 21.1 µM (inactive); with NCI-H23 it was 67.6 µM (inactive).

As to `COc1ccc(C(SCCO)(c2ccccc2)c2ccc(OC)cc2)cc1`, the GI50 with PC-3 was 14.5 µM (inactive); in the test with HT-29 it was 13.9 µM (inactive); in the test with OVCAR-3 it was 16.3 µM (inactive); with K562, 16.7 µM (inactive); in the test on HCT-116, 8.41 µM (inactive); with NCI-H226, 13.6 µM (inactive). The GI50 is 10.2 µM (inactive) in the test with SF-268; 8 µM (inactive) in the test on SK-MEL-5; 10.8 µM (inactive) in the test on SK-OV-3; 11.1 µM (inactive) with SK-MEL-2; 15.8 µM (inactive) with OVCAR-4; 14.6 µM (inactive) in the test on 786-0. For the same molecule, the GI50 is 14.6 µM (inactive) in the test on HOP-92; 8.24 µM (inactive) with RXF 393; 16.5 µM (inactive) in the test with LOX IMVI; 11 µM (inactive) in the test with A549; 16.4 µM (inactive) in the test with Malme-3M; 17.6 µM (inactive) in the test with UO-31. Moreover, the GI50 in the test on OVCAR-5 is 15.2 µM (inactive); in the test on NCI-H23 it was 18.7 µM (inactive).

With `CCCCCCCCC(C)C(=O)N1CCCC1C(=O)N1C(CC(=O)CC)CC(C)CC1C(=O)NC(C)C(=O)NC(C)(C)C(=O)NC(C)(C)C(=O)NC(C(=O)NC(C)C(=O)NC(C)(C)C(=O)NC(C)(C)C(=O)NC(C)CN(C)CCO)C(C)CC` (stereo not given) (X46-P[X47]A[Aib][Aib]IA[Aib][Aib]-X48; configuration not given here), the GI50 is 0.0103 µM (active) with PC-3; 0.0261 µM (active) with HT-29; < 0.01 µM (active) in the test on OVCAR-3; < 0.01 µM (active) in the test on K562; 0.0299 µM (active) in the test with HCT-116; 0.133 µM (active) in the test on NCI-H226. In addition, the GI50 in the test with SF-268 was 0.581 µM (active); in the test on SK-MEL-5 it was < 0.0135 µM (active); in the test with SK-OV-3, 1.19 µM (inactive); in the test on SK-MEL-2, 0.369 µM (active); with OVCAR-4, < 0.0118 µM (active); with 786-0, 0.106 µM (active). For the same molecule, the GI50 in the test on HOP-92 is < 0.01 µM (active); with RXF 393 it was 1.85 µM (inactive); in the test with LOX IMVI it was 0.355 µM (active); in the test on A549, < 0.01 µM (active); in the test on Malme-3M, 1.26 µM (inactive); in the test with UO-31, 0.124 µM (active). In addition, the GI50 with OVCAR-5 is 0.889 µM (active); in the test on NCI-H23, < 0.01 µM (active).

As for `CC(=O)OCCOCn1cnc2c(Cl)nc(Cl)nc21`, the GI50 in the test with PC-3 was 17 µM (inactive); in the test on HT-29, 15.4 µM (inactive); in the test on OVCAR-3, 14 µM (inactive); in the test on K562 it was 2.44 µM (inactive); in the test on HCT-116, 18.2 µM (inactive); in the test with NCI-H226 it was 19.2 µM (inactive). Moreover, the GI50 in the test with SF-268 is 17.9 µM (inactive); with SK-MEL-5, 18.1 µM (inactive); with SK-OV-3 it was > 10 µM (inactive); in the test on SK-MEL-2, 22.3 µM (inactive); with OVCAR-4, 19.1 µM (inactive); in the test on 786-0 it was 21.4 µM (inactive). Besides, the GI50 with HOP-92 was 1.67 µM (inactive); with RXF 393, > 10 µM (inactive); in the test on LOX IMVI it was 4.3 µM (inactive); in the test with A549 it was > 10 µM (inactive); with Malme-3M it was 15.8 µM (inactive); in the test on UO-31, 21.2 µM (inactive). Further, the GI50 with OVCAR-5 is 19.1 µM (inactive); in the test with NCI-H23, 18.7 µM (inactive).
